Experimental data from publication PMC7614687, “Modulation of the substrate specificity of the kinase PDK1 by distinct conformations of the full-length protein*” (Science signaling, 2023).
“Also recorded” adds a separate entry of the source. Read-outs that look alike come from different tables or passages of the source.

Experiments:
PDK1 = target: T1, PDK1 (Homo sapiens, UniProt O15530); assay: Thermo Fisher "PDK1 Direct" assay (peptide Ser/Thr 07, FRET readout); format: biochemical
T1 sequence (O15530 1-556): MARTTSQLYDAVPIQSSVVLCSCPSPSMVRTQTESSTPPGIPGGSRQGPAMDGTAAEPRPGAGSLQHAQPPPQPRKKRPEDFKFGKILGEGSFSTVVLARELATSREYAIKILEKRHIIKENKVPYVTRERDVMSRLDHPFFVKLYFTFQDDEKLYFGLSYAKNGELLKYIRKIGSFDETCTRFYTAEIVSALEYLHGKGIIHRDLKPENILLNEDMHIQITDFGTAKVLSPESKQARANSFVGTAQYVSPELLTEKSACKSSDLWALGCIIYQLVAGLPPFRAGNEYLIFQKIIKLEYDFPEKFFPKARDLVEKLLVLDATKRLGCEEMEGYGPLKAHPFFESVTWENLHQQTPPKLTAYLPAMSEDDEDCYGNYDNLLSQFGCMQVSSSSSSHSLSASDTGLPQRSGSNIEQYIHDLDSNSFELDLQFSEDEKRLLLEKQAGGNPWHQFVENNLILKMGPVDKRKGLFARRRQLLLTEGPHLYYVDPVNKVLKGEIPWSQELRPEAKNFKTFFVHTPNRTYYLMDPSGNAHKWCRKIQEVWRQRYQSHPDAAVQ

PDK1_1-556 = target: T2, PDK1_1-556 (Homo sapiens, UniProt O15530); assay: Differential scanning fluorimetry, thermal stability of PDK1_1-556; format: binding; conditions: PDK1 1 μM
T2 construct: effect of HYG8 on the thermal stability (ΔTm) of PDK1_1-556 (H) and PDK1_50-359 (I); His (N); made in house; host or cells: Sf9 insect cells (baculovirus)
T2 sequence (O15530 1-556): T1 sequence (O15530 1-556)
Protocol: The thermal stability of PDK1 was assessed by monitoring the unfolding of PDK1 by the increase in the fluorescence of SYPRO Orange (Invitrogen) using a real-time PCR device (StepOnePlus, Applied Biosystems and BioRad CFX96) following a previously described protocol ([70]). The reactions were performed in a final volume of 10 μl in white 96-well PCR microtiter plates (Greiner) and contained 1 μM PDK1, 10 mM HEPES (pH 7.5), 150 mM NaCl, 1/1000 SYPRO Orange and 1 mM dithiothreitol. For valsartan, the assay buffer was modified to exclude NaCl. PIFtide or compounds (at a final DMSO concentration of 1%) were added to this reaction mixture. The temperature gradient was performed in steps of 0.3 °C in the range from 25 to 70 °C. To calculate the Tm values, data were exported to GraphPad Prism and curves fitted to a Boltzmann sigmoidal equation with an acceptable confidence interval of 95%. Statistical analysis was performed with Infostat software (http://www.infostat.com.ar) and GraphPad Prism by first verifying a normal distribution of pooled residuals (Shapiro-Wilks test) and homogeneity of variance (F test), and then performing a one-way ANOVA followed by the post hoc comparisons test indicated in each figure legend.

[1] = target: T3, His-PDK1_1-556 and GST-PDK1_360-556 (Homo sapiens, UniProt O15530); assay: AlphaScreen PDK1 dimerization assay His-PDK1_1-556 / GST-PDK1_360-556; format: binding
T3 construct: made in house; host or cells: Sf9 insect cells (His-PDK1_1-556); HEK293 cells (GST-PDK1_360-556)
T3 sequence (O15530 1-556): T1 sequence (O15530 1-556)
Protocol: The AlphaScreen® assay was performed following the general guidelines from the manufacturer (Perkin Elmer) ([29]). In short, the assay was performed in a final volume of 25 μl in white 384-well microtiter plates (Greiner) in a standard buffer containing 50 mM Tris-HCl (pH 7.4), 100 mM NaCl, 2 mM DTT, 0.01% (v/v) Tween-20 and 0.1% (w/v) BSA, with the addition of 5 μl of beads (anti-GST coated acceptor beads and streptavidin-coated donor beads; nickel chelate-coated acceptor beads and streptavidin-coated donor beads; or nickel chelate-coated acceptor beads and GSH-coated donor beads, 20 μg/ml final concentrations for each bead type). AlphaScreen assays for His-tagged proteins and GST-fusion proteins were performed using nickel chelate-coated acceptor beads and GSH-coated donor beads; alphascreen assays for His-tagged proteins and biotinylated molecules were performed using nickel chelate-coated acceptor beads and streptavidin-coated donor beads; alphascreen assays for GST-fusion proteins and biotinylated molecules were performed using anti-GST coated acceptor beads and streptavidin-coated donor beads (Perkin Elmer).
The conditions for each AlphaScreen assay were identified in cross-titration experiments for each interaction to choose the ideal pair of concentrations within the linear range of the interactions. […] His-PDK1 and GST-fusion protein in the presence or absence of the different compounds were incubated in the dark for 60 min at room temperature and the emission of light from the acceptor beads was measured in an EnVision reader (Perkin Elmer) or Spark plate reader (Tecan). […]

[2] = replicate point 1, read-out: % Inhibition Point 1
[3] = replicate point 2, read-out: % Inhibition Point 2
[4] = single point, N=2, read-out: Inhibition at 1 μM (%)
[5] = absence of PIFtide, read-out: IC50 (nM), displacement of His-PDK1_1-556 interaction with GST-PDK1_360-556
[6] = with PIFtide, read-out: IC50 (nM), displacement of His-PDK1_1-556 interaction with GST-PDK1_360-556 with PIFtide

Molecule | inhibition at 1 µM (PDK1; [2]) | inhibition at 1 µM (PDK1; [3]) | Tm (°C), temperature stabilization of PDK1_1-556 (PDK1_1-556; compound 1 µM) | Tm (°C), temperature stabilization of PDK1_1-556 (PDK1_1-556; compound 20 µM) | effect on PDK1 dimer formation [1] | also measured
O=P(O)(O)O[C@@H]1[C@@H](OP(=O)(O)O)[C@H](OP(=O)(O)O)[C@H](O)[C@H](OP(=O)(O)O)[C@H]1OP(=O)(O)O [IP5, inositol-1,3,4,5,6-pentaphosphate, reference compound] | 63% | 69% | 5.3 °C | 11.9 °C | – | inhibition at 1 µM (PDK1; [4]): 66%; Hill slope, PDK1 direct (PDK1; 10-point titration): 1.33; IC50 (PDK1; 10-point titration): 577 nM; times less potent inhibitors than HYG7, HYG8 and HYG14 (PDK1; PDK1 Direct assay IC50 comparison): 15 to 36 times; IC50 [1, 5]: 67 nM; IC50 [1, 6]: 59.4 nM
O=C(CC(c1ccccc1)C(C(=O)O)C(=O)O)c1ccc(C(F)(F)F)cc1 (centres unmarked) [PS210] | – | – | – | – | None of these compounds affected the dimerization | –
CN[C@@H]1C[C@H]2O[C@@](C)([C@@H]1OC)n1c3ccccc3c3c4c(c5c6ccccc6n2c5c31)C(=O)N[C@H]4O [UCN01] | – | – | – | – | do not affect the formation of PDK1 dimers | –
Nc1ncnc2[nH]cnc12 [adenine] | – | – | – | – | do not affect the formation of PDK1 dimers | –
REPRILSEEEQEMFRDFDYIADWS [PIFtide, peptide derived from the PRK2 HM (a PDK1 substrate)] | – | – | – | – | no effect on dimer formation | –

Now from value to molecule, other results behind:

inhibition at 1 µM (PDK1; [2]) | inhibition at 1 µM (PDK1; [3]) | Tm (°C), temperature stabilization of PDK1_1-556 (PDK1_1-556; compound 1 µM) | Tm (°C), temperature stabilization of PDK1_1-556 (PDK1_1-556; compound 20 µM) | Molecule | effect on PDK1 dimer formation [1] | also measured
8% | 7% | 6.2 °C | 9.0 °C | O=P(O)(O)O[C@H]1[C@H](OP(=O)(O)O)[C@@H](OP(=O)(O)O)[C@H](OP(=O)(O)O)[C@@H](OP(=O)(O)O)[C@H]1OP(=O)(O)O [IP6, inositol hexakisphosphate, reference compound] | – | inhibition at 1 µM (PDK1; [4]): 8%; Hill slope, PDK1 direct (PDK1; 10-point titration): –2.18; IC50 (PDK1; 10-point titration): > 10000 nM; IC50 (nM), PDK1 direct (PDK1; 10-point titration): inactive; IC50 (nM), displacement of His-PDK1_1-556 interaction with GST-PDK1_360-556 ([1]; absence of PIFtide): Does not reach complete displacement; also recorded: no displacement; IC50 (nM), displacement of His-PDK1_1-556 interaction with GST-PDK1_360-556 with PIFtide ([1]; with PIFtide): Does not reach complete displacement
-8% | -10% | 4.7 °C | 7.3 °C | O=P(O)(O)O[C@@H]1[C@@H](OP(=O)(O)O)[C@H](OP(=O)(O)O)[C@@H](O)[C@H](OP(=O)(O)O)[C@H]1OP(=O)(O)O [scyllo-IP5, reference compound] | – | Inhibition at 1 μM (%) (PDK1; single point, N=2): -9%; Inhibition at 1 μM (%) (PDK1; single point, N=2, listed as Scyllo-IP5, 1 µM): ≤ 10%; IC50 [1, 5]: 124 nM; IC50 [1, 6]: 140 nM
